This passage reports kOH results from ChEMBL document CHEMBL1135486, “Acylating agents as enzyme inhibitors and understanding their reactivity for drug design” (J Med Chem, 2002).

This series in a line: Second-order rate constant (M-1 s-1) for the alkaline hydrolysis in water at 30 degrees C. The settings on record: buffer.

In turn, `O=C1CCCO1` [BUTYROLACTONE] had a kOH of 1.31 M⁻¹ s⁻¹. `O=C1CCCN1` [2-PYRROLIDONE] showed a kOH of 1.2 M⁻¹ s⁻¹. As for `C=CC[C@H]1C(=O)OC2CCN(C(=O)OCc3ccccc3)[C@@H]21` (some centres undefined), the kOH was 0.252 M⁻¹ s⁻¹. `CN1C(=O)CCC1=O` came in with a kOH of 0.825 M⁻¹ s⁻¹. Turning to `CC(C)[C@@H]1C(=O)N(S(C)(=O)=O)[C@@H]2CCN(C(=O)C3CN(CC(C)(C)C)C3)[C@H]21`, the kOH came out at 0.0601 M⁻¹ s⁻¹. `O=C1c2ccccc2S(=O)(=O)N1Cc1ccccc1` came in with a kOH of 4.06 M⁻¹ s⁻¹. The same measure for `O=C1CCCN1c1ccccc1`: 0.000013 M⁻¹ s⁻¹; for `CC(C)[C@@H]1C(=O)N(S(C)(=O)=O)[C@@H]2CCN(C(=O)/C=C/CN3CCCCC3)[C@H]21`: 0.07 M⁻¹ s⁻¹. To `CC(=O)N(C)C(C)=O` belongs 1.54 M⁻¹ s⁻¹; to `CC(C)[C@@H]1C(=O)N(S(C)(=O)=O)[C@@H]2CCN(C(=O)c3coc(CN4CCCC4)n3)[C@H]21`, 0.08 M⁻¹ s⁻¹.

Consider `CCOC(C)=O` [ETHYL ACETATE], for which the kOH is 0.164 M⁻¹ s⁻¹. `CCC[C@H](NC(=O)N1C(=O)C(CC)(CC)C1Oc1ccc(C(=O)N2CCN(C)CC2)cc1)c1ccc2c(c1)OCO2` (some centres undefined) displayed a kOH of 0.027 M⁻¹ s⁻¹. In turn, `CN1CCCC1=O` [METHYLPYRROLIDONE] gave a kOH of 3.07 M⁻¹ s⁻¹. As for `CC(=O)N(C)S(=O)(=O)Cc1ccccc1`, the kOH was found to be 1.3 M⁻¹ s⁻¹.
